Results on eight compounds are retold here after patent US20240400564A1 (Syndax Pharmaceuticals, Inc, priority 2021, published 2024).

SMILES strings stand for the structures. Where only a bound is given, the exact number is not on record here.

Data set [1] has as its target T1, Menin-MLL (Homo sapiens, UniProt O00255).
T1 sequence (O00255 1-610): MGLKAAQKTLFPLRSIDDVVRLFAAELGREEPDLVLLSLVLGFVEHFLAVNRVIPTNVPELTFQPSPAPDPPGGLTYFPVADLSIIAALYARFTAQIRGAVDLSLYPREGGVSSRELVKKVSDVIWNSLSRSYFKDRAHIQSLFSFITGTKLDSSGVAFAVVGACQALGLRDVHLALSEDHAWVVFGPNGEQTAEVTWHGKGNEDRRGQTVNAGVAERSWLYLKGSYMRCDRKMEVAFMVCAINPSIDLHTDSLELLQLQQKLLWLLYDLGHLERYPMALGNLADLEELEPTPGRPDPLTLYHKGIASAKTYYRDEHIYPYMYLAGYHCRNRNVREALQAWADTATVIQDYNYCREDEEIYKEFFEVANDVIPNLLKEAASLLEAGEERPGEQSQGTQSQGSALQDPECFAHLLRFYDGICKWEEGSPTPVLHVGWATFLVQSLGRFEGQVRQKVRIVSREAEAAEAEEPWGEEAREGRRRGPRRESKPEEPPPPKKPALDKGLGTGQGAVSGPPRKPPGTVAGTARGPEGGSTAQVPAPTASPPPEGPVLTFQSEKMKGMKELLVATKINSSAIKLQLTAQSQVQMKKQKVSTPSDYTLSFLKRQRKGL
As to the kind of experiment: Determination of binding constants to Menin-MLL (HTRF, EC50 and Ki). The note with it: 0.25 nM H-FL-Menin, 3.2 nM FITC-MLL-4-43, 24 hr incubation. In general terms: TR-FRET usually uses a lanthanide donor and a delayed reading to cut background.

The target in data set [2] is T2, human Menin and N-terminal portion of human MLL (amino acids 4-43) (Homo sapiens, UniProt O00255).
T2 construct: H-FL-Menin diluted to 4 nM in assay buffer
T2 sequence (O00255 1-610): T1 sequence (O00255 1-610)
The data set is described as follows: Menin-MLL competition assay (HTRF). The note with it: 1 hr incubation. The format is binding. The method in brief:
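HTRF competition: 1 nM His-tagged full-length Menin with 2 nM Tb-anti-His6 and 1 nM FITC-MLL(4-43), 1 h at room temperature in Tris pH 7.4 buffer with DTT, BSA, Triton X-100; 3.16-fold compound series, 2% DMSO. Ratio 520/485 normalized to DMSO and 1 μM reference-compound controls for IC50.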

Data set [3] concerns the target hERG (Homo sapiens, UniProt Q12809). The data set is described as follows: Patch clamp assay (hERG tail currents, whole-cell). A general note: The patch-clamp technique gives a direct electrical read-out from membranes.
For data set [4], the system named is MLLr leukemia cell line MV4-11. The data set is described as follows: Cell proliferation assay MV4;11 (CellTiter-Glo, 72 hours). The format is cell-based. The note with it: Homo sapiens; MV4-11 cells, 72 hours, CellTiter-Glo; read-out: MV4; 11 IC50. The method in brief:
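Cells in IMDM/10% FBS, seeded from a 15,000 cells/ml suspension, were exposed for 72 h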
(In general: In ATP-based viability assays light output follows the ATP content of the culture.)

Chain of hERG (Q12809 whole entry): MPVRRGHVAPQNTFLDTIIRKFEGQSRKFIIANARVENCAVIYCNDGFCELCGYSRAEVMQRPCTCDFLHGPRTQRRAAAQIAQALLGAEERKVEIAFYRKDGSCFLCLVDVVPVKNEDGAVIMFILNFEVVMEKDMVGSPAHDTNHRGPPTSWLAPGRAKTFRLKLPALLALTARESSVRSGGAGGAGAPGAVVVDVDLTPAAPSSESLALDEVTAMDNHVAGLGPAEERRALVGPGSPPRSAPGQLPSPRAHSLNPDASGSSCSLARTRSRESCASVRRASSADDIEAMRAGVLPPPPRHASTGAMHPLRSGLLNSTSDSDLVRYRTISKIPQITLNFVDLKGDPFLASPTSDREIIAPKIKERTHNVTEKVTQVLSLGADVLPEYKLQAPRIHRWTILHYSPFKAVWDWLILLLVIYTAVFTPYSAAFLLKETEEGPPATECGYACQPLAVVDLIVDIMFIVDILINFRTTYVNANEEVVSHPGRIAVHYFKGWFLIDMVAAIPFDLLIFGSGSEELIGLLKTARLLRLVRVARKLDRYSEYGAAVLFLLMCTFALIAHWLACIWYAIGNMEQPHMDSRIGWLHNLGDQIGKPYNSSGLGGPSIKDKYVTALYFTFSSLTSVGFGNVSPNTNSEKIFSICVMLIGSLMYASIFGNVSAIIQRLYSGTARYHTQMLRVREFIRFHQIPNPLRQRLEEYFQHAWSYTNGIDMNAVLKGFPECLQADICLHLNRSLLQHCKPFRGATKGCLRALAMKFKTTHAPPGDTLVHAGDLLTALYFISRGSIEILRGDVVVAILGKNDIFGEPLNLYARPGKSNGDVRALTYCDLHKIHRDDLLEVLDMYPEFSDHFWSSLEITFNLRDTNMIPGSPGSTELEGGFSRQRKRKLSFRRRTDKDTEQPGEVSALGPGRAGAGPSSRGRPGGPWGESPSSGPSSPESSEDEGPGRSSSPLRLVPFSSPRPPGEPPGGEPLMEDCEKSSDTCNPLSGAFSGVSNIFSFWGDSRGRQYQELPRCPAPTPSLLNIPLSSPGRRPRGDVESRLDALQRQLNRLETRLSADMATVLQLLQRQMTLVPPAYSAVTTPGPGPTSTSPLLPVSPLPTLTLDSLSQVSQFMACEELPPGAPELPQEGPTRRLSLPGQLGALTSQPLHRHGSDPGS

As for `CCCNC(=O)N[C@@H]1CC[C@@H](CN2CCC3(CC2)CN(c2ncncc2Oc2ccc(F)cc2C(=O)N(CC)C(C)C)C3)OC1` [Example 38, N-Ethyl-5-fluoro-N-isopropyl-2-((4-(7-(((2S,5R)-5-(3-propylureido)tetrahydro-2H-pyran-2-yl)methyl)-2,7-diazaspiro[3.5]nonan-2-yl)pyrimidin-5-yl)oxy)benzamide], the “Menin-MLL Ki HTRF Assay: EC50 (nM)” value in data set [1] was “++ (250 nM and <100 nM)”. The compound also returned an IC50 in data set [2] below 100 nM.

Turning to `CCN(C(=O)c1cc(F)ccc1Oc1cncnc1N1CC2(CCN(C[C@@H]3CC[C@@H](NC(=O)NCC(F)F)CO3)CC2)C1)C(C)C` [Example 41, 2-((4-(7-(((2S,5R)-5-(3-(2,2-Difluoroethyl)ureido)tetrahydro-2H-pyran-2-yl)methyl)-2,7-diazaspiro[3.5]nonan-2-yl)pyrimidin-5-yl)oxy)-N-ethyl-5-fluoro-N-isopropylbenzamide], in data set [1], the “Menin-MLL Ki HTRF Assay: EC50 (nM)” value is “++ (250 nM and <100 nM)”. This compound displayed an IC50 in data set [2] below 100 nM.

By Ki is commonly meant the dissociation constant of the complex between target and ligand, obtained from inhibition or displacement. Read a high Ki as a looser hold on the target. Regarding `CC(C)N(C(=O)c1cc(F)ccc1Oc1cncnc1N1CC2(CCN(C[C@@H]3CC[C@@H](NS(=O)(=O)C4CC4)CO3)CC2)C1)[C@H]1CCOC1` [Example 176, 2-((4-(7-(((2S,5R)-5-(Cyclopropanesulfonamido)tetrahydro-2H-pyran-2-yl)methyl)-2,7-diazaspiro[3.5]nonan-2-yl)pyrimidin-5-yl)oxy)-5-fluoro-N-isopropyl-N-((S)-tetrahydrofuran-3-yl)benzamide], the inhibition constant (Ki) in data set [1] is below 1 nM. Moreover, the IC50 is above 50000 nM in data set [3] and below 100 nM in data set [4]. The “hERG % Remaining” value in data set [3] (10 μM compound), in data set [3] (30 μM compound) and in data set [3] (100 μM compound) was “+++ (≥66%)” in each case.

In turn, `CC(C)N(C(=O)c1cc(F)ccc1Oc1cncnc1N1CC2(CCN(C[C@@H]3CC[C@@H](NS(=O)(=O)N(C)C)CO3)CC2)C1)[C@H]1CCOC1` [Example 177, 2-((4-(7-(((2S,5R)-5-((N,N-Dimethylsulfamoyl)amino)tetrahydro-2H-pyran-2-yl)methyl)-2,7-diazaspiro[3.5]nonan-2-yl)pyrimidin-5-yl)oxy)-5-fluoro-N-isopropyl-N-((S)-tetrahydrofuran-3-yl)benzamide] yielded an inhibition constant Ki in data set [1] below 1 nM. Moreover, the “hERG % Remaining” value in data set [3] (10 μM compound) and in data set [3] (30 μM compound) was “+++ (≥66%)” in each case. Further, the IC50 in data set [4] is below 100 nM.

`CCS(=O)(=O)N[C@@H]1CC[C@@H](CN2CCC3(CC2)CN(c2ncncc2Oc2ccc(F)cc2C(=O)N(C(C)C)[C@H]2C[C@H](F)C2)C3)OC1` [Example 243, 2-((4-(7-(((2S,5R)-5-(Ethylsulfonamido)tetrahydro-2H-pyran-2-yl)methyl)-2,7-diazaspiro[3.5]nonan-2-yl)pyrimidin-5-yl)oxy)-5-fluoro-N-((1r,3r)-3-fluorocyclobutyl)-N-isopropylbenzamide]: the Ki in data set [1] is below 1 nM. For the same compound, the IC50 in data set [4] was below 100 nM.

In data set [1], `CCS(=O)(=O)N[C@@H]1CC[C@@H](CN2CCC3(CC2)CN(c2ncncc2Oc2ccc(F)cc2C(=O)N(C(C)C)[C@H]2C[C@@H](F)C2)C3)OC1` [Example 244, 2-((4-(7-(((2S,5R)-5-(ethylsulfonamido)tetrahydro-2H-pyran-2-yl)methyl)-2,7-diazaspiro[3.5]nonan-2-yl)pyrimidin-5-yl)oxy)-5-fluoro-N-((1s,3s)-3-fluorocyclobutyl)-N-isopropylbenzamide] displayed an inhibition constant Ki below 1 nM. Further, the “hERG % Remaining” value in data set [3] (10 μM compound) is “+++ (≥66%)”; in data set [3] (30 μM compound) it was “++ (233% and ≤66%)”. Further, in data set [4], the IC50 is below 100 nM.

For the compound `CCS(=O)(=O)N[C@@H]1CC[C@@H](CN2CCC3(CC2)CN(c2ncncc2Oc2ccc(F)cc2C(=O)N(C(C)C)[C@H]2C[C@@H](C(F)F)C2)C3)OC1` [Example 245, N-((1s,3s)-3-(difluoromethyl)cyclobutyl)-2-((4-(7-(((2S,5R)-5-(ethylsulfonamido)tetrahydro-2H-pyran-2-yl)methyl)-2,7-diazaspiro[3.5]nonan-2-yl)pyrimidin-5-yl)oxy)-5-fluoro-N-isopropylbenzamide], the Ki in data set [1] was below 1 nM. Further, the IC50 in data set [4] was below 100 nM.

Consider `CCS(=O)(=O)N[C@@H]1CC[C@@H](CN2CCC3(CC2)CN(c2ncncc2Oc2ccc(F)cc2C(=O)N(C(C)C)[C@H]2C[C@H](C(F)F)C2)C3)OC1` [Example 246, N-((1r,3r)-3-(Difluoromethyl)cyclobutyl)-2-((4-(7-(((2S,5R)-5-(ethylsulfonamido)tetrahydro-2H-pyran-2-yl)methyl)-2,7-diazaspiro[3.5]nonan-2-yl)pyrimidin-5-yl)oxy)-5-fluoro-N-isopropylbenzamide], for which the Ki in data set [1] was below 1 nM. Also, the IC50 in data set [4] is below 100 nM.
